Legend:
[1] = Use testing of allantoin-loaded yarn; assay type: in vivo; conditions: 25% in RTV imbibed into 40 Denier texturized nylon yarn
Source text: Allantoin, which is frequently used as an active in skin creams, was dispersed in RTV at 25%, and this matrix imbibed into a 40 Denier texturized nylon yarn. Some of this was plied with a 40 Denier nylon yarn. Another portion was air-covered with a spandex yarn.

[2] = Informal wear test of aspirin sleeve; assay type: in vivo; conditions: sleeve worn on the elbow or knee
Source text: (§1) Aspirin (acetylsalicylic acid) was ground to a fine powder and dispersed at 25% wt/wt in Novagard 200-260. This was imbibed into a texturized 70 Denier nylon yarn, then plied with a textured 70 Denier nylon yarn. The yarn was then knitted into several sleeves.

[3] = Release test on fabric swatches after washing or dyeing (retention of active), absorbance at 280 nm; assay type: physicochemical
Experimental: This Example provides exemplary release tests on fabrics from yarns of the disclosure. These release measurements were performed on small swatches of fabric produced from yarn of the disclosure, and washed or otherwise stressed before release testing. Release was used to quantify how much active is retained intact after the stress. No coating was necessary for this test. Retention of active through stresses such as washes and scouring is a key distinguishing benefit of yarns of this disclosure and enables medicated fabrics that can be applied in a wide range of applications that demand washability in order to be commercially viable.
as §1
Washing with hot detergent water was then done once (on swatch #2), 5 times (swatch #3), or 10 times (swatch #4). Swatch #1 was the control with zero washings. Each swatch, a fixed 1-inch square, was placed in water for release, and after two days the absorbance measured at 280 nanometers.
Another sleeve was dyed using a standard dyeing process, which included scouring at the upper limit of the normal range of temperatures in dyeing, namely 220° F. for 45 minutes. […] Over 50% potency was retained through this intense process.

[4] = typical topical cream, depending on the severity of pain; cited from earlier work
[5] = Franz cell transdermal delivery test
Experimental: This was then tested in a Franz cell apparatus (Zyleris Pharmatech) for its ability to deliver the active (arecoline) transdermally.
The test article, in this case the aforementioned arecoline-loaded fabric, was placed atop a small piece of freshly excised skin, in this case from a pig's ear; below the skin was a reservoir containing bovine serum albumin buffer to simulate blood plasma. In order to reach the reservoir, the active had to diffuse transdermally across the layer of skin. Three such Franz cells were used so that the experiment was done in triplicate. A small aliquot was drawn from each reservoir at the 24-hour point and tested for arecoline as now described.
A reference arecoline solution was prepared by dissolving approximately 3 milligrams arecoline hydrobromide (ScienceLab.com) in approximately 0.5 milliliters of bovine serum albumin buffer, for an approximate concentration of about 6 milligrams/milliliter. The reference solution was spotted alongside all three samples (labelled R7, R8 and R9) on a TLC plate at the origin. After driving out the water from the spots with heat, the spotted TLC plate was allowed to cool, then developed in 100% methanol inside a developing tank. […]

NC(=O)NC1NC(=O)NC1=O (stereo not drawn) [Allantoin]
skin effect (in words) [1]: skin-soothing, softening effect

CC(=O)Oc1ccccc1C(=O)O [Aspirin, acetylsalicylic acid]
analgesia (in words) [2]: significant analgesia
Absorbance (at 280 nm) ([3]; 1 wash with hot detergent water, 1-inch square swatch in water, two days): 0.077
Absorbance (at 280 nm) ([3]; 5 washes with hot detergent water, 1-inch square swatch in water, two days): 0.038
Absorbance (at 280 nm) ([3]; 10 washes with hot detergent water, 1-inch square swatch in water, two days): 0.045
Absorbance (at 280 nm) ([3]; Control (0 washes), 1-inch square swatch in water, two days): 0.097
Absorbance (at 280 nm) ([3]; Dyed (scouring at 220° F. for 45 minutes)): 0.051
retention of the active ([3]; after 10 washings): about 45%
potency retained ([3]; after standard dyeing process, scouring 220° F. for 45 minutes): Over 50%

COc1cc(CNC(=O)CCCC/C=C/C(C)C)ccc1O [capsaicin]
effective daily dose for relief in the foot, ankle, and calf [4]: 0.5 to 6 mg

COC(=O)C1=CCCN(C)C1 [arecoline]
concentration of arecoline in the reservoirs ([5]; 24-hour point, uncoated fabric of polyester yarn imbibed with 10% arecoline hydrobromide in Novagard 200-260, TLC spot intensity vs reference): ~5 milligrams/milliliters
transdermal delivery (in words) ([5]; pig ear skin Franz cell model, imbibed yarn): effective

From patent US10799464B2, “Delivery systems” (Textile-Based Delivery, Inc., priority 2014, dated 2020)
